Laboratory results as given in PubChem BioAssay (NCI).
“And” between values parts separate entries of the source, which are not always exact repeats. Equal values may be shown once.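 Grown in 96-well plates, cells were treated for 48 hours with each compound at five concentrations. Insufficient inhibition: endpoint recorded as highest concentration tested. Here, GI50 denotes the concentration required for 50% inhibition of growth. TGI: concentration producing complete growth inhibition.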

How the values were obtained:
Test in all cases: NCI-60 cell line screen, 48 h
SF-539 CNS = test system: SF-539 CNS
786-0 renal = test system: 786-0 renal
HT29 colon = test system: HT29 colon
NCI-H23 lung = test system: NCI-H23 lung
ACHN renal = test system: ACHN renal
SK-MEL-5 melanoma = test system: SK-MEL-5 melanoma
M14 melanoma = test system: M14 melanoma
A498 renal = test system: A498 renal
HOP-92 NSCLC = test system: HOP-92 NSCLC
K-562 leukemia = test system: K-562 leukemia
SN12C renal = test system: SN12C renal
LOX IMVI melanoma = test system: LOX IMVI melanoma
KM12 colon = test system: KM12 colon
MCF7 breast = test system: MCF7 breast

COC(=O)C1=C(CCC[C@H](C)O[Si](C)(C)C(C)(C)C)NC(=O)N2[C@@H](CCO)CC[C@H]12 was tested, and the TGI (SF-539 CNS) was 31.6 µM, the TGI (786-0 renal) was 29.1 µM and the TGI (HT29 colon) was 29.8 µM. For the same compound, the TGI (NCI-H23 lung) was 27.2 µM, the TGI (ACHN renal) was 30.3 µM and the TGI (SK-MEL-5 melanoma) was 21 µM. The TGI (M14 melanoma) was 30.9 µM, the TGI (A498 renal) was 31.1 µM and the TGI (HOP-92 NSCLC) was 28.4 µM. For the same compound, the TGI (K-562 leukemia) was > 100 µM, the TGI (SN12C renal) was 29.2 µM and the TGI (LOX IMVI melanoma) was 32.7 µM. It also gave a TGI (KM12 colon) of 51.2 µM.
COc1ccc(-c2cc(=O)c3c(O)cc(O)cc3o2)c(OC)c1OC was tested, and the TGI (SF-539 CNS) was > 100 µM, the TGI (786-0 renal) was > 100 µM and the TGI (HT29 colon) was > 100 µM. The TGI (NCI-H23 lung) was > 100 µM, the TGI (M14 melanoma) was > 100 µM and the TGI (HOP-92 NSCLC) was > 100 µM. For the same compound, the TGI (K-562 leukemia) was > 100 µM, the TGI (SN12C renal) was > 100 µM and the TGI (LOX IMVI melanoma) was > 100 µM. The TGI (KM12 colon) was > 100 µM.
CCOC(=O)C1(Br)S(=O)(=O)OCCOS1(=O)=O was tested, and the TGI (SF-539 CNS) was > 100 µM, the TGI (786-0 renal) was > 100 µM and the TGI (HT29 colon) was > 100 µM. For the same compound, the TGI (NCI-H23 lung) was > 100 µM, the TGI (ACHN renal) was > 100 µM and the TGI (SK-MEL-5 melanoma) was > 100 µM. For the same compound, the TGI (M14 melanoma) was > 100 µM, the TGI (A498 renal) was > 100 µM and the TGI (HOP-92 NSCLC) was > 100 µM. For the same compound, the TGI (K-562 leukemia) was > 100 µM, the TGI (SN12C renal) was > 100 µM and the TGI (LOX IMVI melanoma) was > 100 µM.
In the case of O=c1c([OH2+])c(-c2ccc(O)cc2[O-])oc2cc(O)cc([O-])c12.O=c1c([OH2+])c(-c2ccc(O)cc2[O-])oc2cc(O)cc([O-])c12.[Ti+4], the TGI (SF-539 CNS) was > 100 µM, the TGI (786-0 renal) was > 100 µM and the TGI (HT29 colon) was > 100 µM. For the same compound, the TGI (NCI-H23 lung) was > 100 µM, the TGI (ACHN renal) was > 100 µM and the TGI (SK-MEL-5 melanoma) was > 100 µM. The TGI (M14 melanoma) was > 100 µM, the GI50 (A498 renal) was > 100 µM and the TGI (A498 renal) was > 100 µM. The TGI (K-562 leukemia) was > 100 µM, the TGI (SN12C renal) was > 100 µM and the TGI (LOX IMVI melanoma) was > 100 µM. For the same compound, the TGI (KM12 colon) was > 100 µM.
For CSc1c(C#N)c(S)[nH]c(=O)c1C#N, the TGI (SF-539 CNS) was > 100 µM, the TGI (786-0 renal) was > 100 µM and the TGI (MCF7 breast) was > 100 µM. The TGI (HT29 colon) was > 100 µM, the TGI (NCI-H23 lung) was > 100 µM and the TGI (SK-MEL-5 melanoma) was 98.9 µM. For the same compound, the TGI (M14 melanoma) was > 100 µM, the TGI (A498 renal) was 98 µM and the TGI (K-562 leukemia) was > 100 µM. For the same compound, the TGI (SN12C renal) was > 100 µM, the TGI (LOX IMVI melanoma) was > 100 µM and the TGI (KM12 colon) was > 100 µM.
For O=c1c2cc(I)ccc2nc(-c2cccs2)n1/N=C/c1ccccc1, the TGI (SF-539 CNS) was > 100 µM, the TGI (786-0 renal) was > 100 µM and the TGI (MCF7 breast) was > 100 µM. The TGI (HT29 colon) was > 100 µM, the TGI (NCI-H23 lung) was > 100 µM and the TGI (ACHN renal) was > 100 µM. The TGI (SK-MEL-5 melanoma) was > 100 µM, the TGI (M14 melanoma) was > 100 µM and the TGI (HOP-92 NSCLC) was > 100 µM. The TGI (K-562 leukemia) was > 100 µM, the TGI (SN12C renal) was > 100 µM and the TGI (LOX IMVI melanoma) was > 100 µM. For the same compound, the TGI (KM12 colon) was > 100 µM.
In the case of COc1cc2c[n+](C)c3c4cc(OC)c(OC)cc4ccc3c2cc1OC, the GI50 (SF-539 CNS) was 71.3 µM and 29.9 µM, the TGI (SF-539 CNS) was > 100 µM and the TGI (786-0 renal) was > 100 µM. The GI50 (MCF7 breast) was 35.6 µM and 8.35 µM, the TGI (MCF7 breast) was > 100 µM and the TGI (HT29 colon) was > 100 µM. The GI50 (NCI-H23 lung) was 40.8 µM and 19.5 µM, the TGI (NCI-H23 lung) was > 100 µM and 77 µM and the TGI (ACHN renal) was > 100 µM. For the same compound, the TGI (SK-MEL-5 melanoma) was > 100 µM, the TGI (M14 melanoma) was > 100 µM and the TGI (A498 renal) was > 100 µM. The TGI (K-562 leukemia) was > 100 µM, the GI50 (SN12C renal) was 30.4 µM and 3.98 µM and the TGI (SN12C renal) was > 100 µM. For the same compound, the TGI (LOX IMVI melanoma) was > 100 µM, the GI50 (KM12 colon) was > 100 µM and 33.3 µM and the TGI (KM12 colon) was > 100 µM.
With O=C1c2ccccc2C(=O)N1CC(CN1C(=O)c2ccccc2C1=O)(C(=O)OCc1ccccc1)C(=O)OCc1ccccc1 the TGI (HT29 colon) was > 100 µM, the TGI (NCI-H23 lung) was > 100 µM and the TGI (SK-MEL-5 melanoma) was > 100 µM. For the same compound, the TGI (M14 melanoma) was > 100 µM, the TGI (A498 renal) was > 100 µM and the TGI (HOP-92 NSCLC) was > 100 µM. The TGI (SN12C renal) was > 100 µM and the TGI (KM12 colon) was > 100 µM.
